Columns and labels:
Assay type in all cases: cell-based
[1] = test system: cultured cells of Taxus baccata LINN; assay: Taxus baccata cell culture with cyclic polysaccharides
Protocol: A part of stem of Taxus baccata LINN which had been previously sterilized with 2% antiformin solution or 70% ethanol solution or the like, was placed on solid Woody Plant Medium (containing gelan gum of 0.25% by weight) to which naphthalenacetic acid had been added to give the concentration of 10^−5 M, and static culture was carried out at 25° C. in a dark place to provide callus of Taxus baccata LINN. 0.1 g (fresh weight) of the callus was inoculated to a well having an inner diameter of 18 mm, containing 1 ml of liquid Woody Plant Medium to which the above-mentioned component was added to give the same concentration and shake culture was carried out with a rotary shaker (amplification of 25 mm, 120 rpm) and the callus was subcultured in every 28 days to accelerate the growth rate thereof.
One gram (fresh weight) of the cultured cells thus obtained was inoculated to an Erlenmeyer flask containing 20 ml of liquid Woody Plant Medium to which the above-mentioned component was added to give the same concentration, and shake culture was carried out at 25° C. for 14 days. […]
After completing the culture, cultured cells of Taxus baccata LINN were harvested by filtration and lyophilized, then the dry weight was measured to obtain the yeild thereof per liter of the liquid medium.

[2] = test system: cultured cells of Taxus baccata LINN; assay: Taxus baccata cell culture with cyclic polysaccharides and methyl ester of jasmonic acid
Protocol: […] After completing the culture, cultured cells of Taxus baccata LINN were harvested by filtration and lyophilized, then the dry weight was measured to obtain the yeild thereof per liter of the liquid medium.

[3] = test system: cultured cells of Taxus media; assay: Taxus media cell culture with derivatives of jasmonic acids; conditions: concentration of derivative of jasmonic acids 100 μM
Protocol: A part of germ of Taxus media which had been previously sterilized with 2% antiformin solution or 70% ethanol solution or the like, was placed on solid Woody Plant Medium (containing gelan gum of 0.25% by weight) to which naphthalenacetic acid had been added to give the concentration of 10^−5 M, and static culture was carried out at 25° C. in a dark place to provide callus of Taxus media. One gram (fresh weight) of the callus was inoculated to an Erlenmeyer flask containing 20 ml of liquid Woody Plant Medium to which above-mentioned component was added to give the same concentration, the and shake culture was carried out with a rotary shaker (amplification of 25 mm, 100 rpm) and the callus was subcultured in every 14 days to accelerate the growth rate thereof.
Two grams (fresh weight) of the cultured cells thus obtained was inoculated to an Erlenmeyer flask containing 20 ml of liquid Woody Plant […], and the culture was further carried out for another 14 days.
After completing the culture, cultured cells of Taxus media were harvested by filtration and lyophilized, then the dry weight was measured to obtain the yield of the cultured cells per liter of the liquid medium.

[4] = 50 mM, 6-O-α-D-glucosyl-β-cyclodextrin was used
[5] = 6-O-α-D-glucosyl-β-cyclodextrin 50 mM + methyl ester of jasmonic acid 100 μM
[6] = concentration of β-cyclodextrin 0.01 mM
[7] = concentration of β-cyclodextrin 0.1 mM
[8] = concentration of β-cyclodextrin 1 mM
[9] = concentration of β-cyclodextrin 10 mM
[10] = β-cyclodextrin 0.01 mM + methyl ester of jasmonic acid 100 μM
[11] = β-cyclodextrin 0.1 mM + methyl ester of jasmonic acid 100 μM
[12] = β-cyclodextrin 1 mM + methyl ester of jasmonic acid 100 μM
[13] = β-cyclodextrin 10 mM + methyl ester of jasmonic acid 100 μM
[14] = cyclic polysaccharide 10 mM + methyl ester of jasmonic acid 100 μM
[15] = methyl ester of jasmonic acid 100 μM, β-cyclodextrin 0 mM

Structure (SMILES): OC[C@H]1O[C@H](OC[C@H]2O[C@@H]3O[C@H]4[C@H](O)[C@@H](O)[C@@H](O[C@H]5[C@H](O)[C@@H](O)[C@@H](O[C@H]6[C@H](O)[C@@H](O)[C@@H](O[C@H]7[C@H](O)[C@@H](O)[C@@H](O[C@H]8[C@H](O)[C@@H](O)[C@@H](O[C@H]9[C@H](O)[C@@H](O)[C@@H](O[C@H]2[C@H](O)[C@H]3O)O[C@@H]9CO)O[C@@H]8CO)O[C@@H]7CO)O[C@@H]6CO)O[C@@H]5CO)O[C@@H]4CO)[C@H](O)[C@@H](O)[C@@H]1O [Example 17, 6-O-α-D-glucosyl-β-cyclodextrin]
- yeild of cultured cells [1, 4]: 20.5 g/L
- yield of baccatin III [1, 4]: 3.5 mg/L
- yield of cephalomannine [1, 4]: 1.3 mg/L
- yield of taxol [1, 4]: 8.2 mg/L
- yield of baccatin III [2, 5]: 53.0 mg/L
- yield of cephalomannine [2, 5]: 11.1 mg/L
- yield of cultured cells [2, 5]: 17.5 g/L
- yield of taxol [2, 5]: 45.9 mg/L

Structure (SMILES): OC[C@H]1O[C@@H]2O[C@H]3[C@H](O)[C@@H](O)[C@@H](O[C@H]4[C@H](O)[C@@H](O)[C@@H](O[C@H]5[C@H](O)[C@@H](O)[C@@H](O[C@H]6[C@H](O)[C@@H](O)[C@@H](O[C@H]7[C@H](O)[C@@H](O)[C@@H](O[C@H]8[C@H](O)[C@@H](O)[C@@H](O[C@H]1[C@H](O)[C@H]2O)O[C@@H]8CO)O[C@@H]7CO)O[C@@H]6CO)O[C@@H]5CO)O[C@@H]4CO)O[C@@H]3CO [Example 13, β-cyclodextrin]
- yeild of cultured cells [1, 6]: 19.0 g/L
- yield of baccatin III [1, 6]: 2.5 mg/L
- yield of cephalomannine [1, 6]: 0.7 mg/L
- yield of taxol [1, 6]: 4.0 mg/L
- yeild of cultured cells [1, 7]: 19.1 g/L
- yield of baccatin III [1, 7]: 3.0 mg/L
- yield of cephalomannine [1, 7]: 2.6 mg/L
- yield of taxol [1, 7]: 4.2 mg/L
- yeild of cultured cells [1, 8]: 20.1 g/L
- yield of baccatin III [1, 8]: 4.2 mg/L
- yield of cephalomannine [1, 8]: 3.0 mg/L
- yield of taxol [1, 8]: 6.5 mg/L
- yeild of cultured cells [1, 9]: 20.1 g/L
- yield of baccatin III [1, 9]: 5.0 mg/L
- yield of cephalomannine [1, 9]: 2.2 mg/L
- yield of taxol [1, 9]: 10.5 mg/L
- yield of baccatin III [2, 10]: 54.6 mg/L
- yield of cephalomannine [2, 10]: 8.0 mg/L
- yield of cultured cells [2, 10]: 15.6 g/L
- yield of taxol [2, 10]: 28.5 mg/L
- yield of baccatin III [2, 11]: 62.6 mg/L
- yield of cephalomannine [2, 11]: 9.6 mg/L
- yield of cultured cells [2, 11]: 16.3 g/L
- yield of taxol [2, 11]: 35.4 mg/L
- yield of baccatin III [2, 12]: 76.0 mg/L
- yield of cephalomannine [2, 12]: 10.1 mg/L
- yield of cultured cells [2, 12]: 15.4 g/L
- yield of taxol [2, 12]: 42.3 mg/L
- yield of baccatin III [2, 13]: 54.2 mg/L
- yield of cephalomannine [2, 13]: 12.5 mg/L
- yield of cultured cells [2, 13]: 17.3 g/L
- yield of taxol [2, 13]: 64.4 mg/L

Structure (SMILES): OC[C@H]1O[C@@H]2O[C@H]3[C@H](O)[C@@H](O)[C@@H](O[C@H]4[C@H](O)[C@@H](O)[C@@H](O[C@H]5[C@H](O)[C@@H](O)[C@@H](O[C@H]6[C@H](O)[C@@H](O)[C@@H](O[C@H]7[C@H](O)[C@@H](O)[C@@H](O[C@H]8[C@H](O)[C@@H](O)[C@@H](O[C@H]9[C@H](O)[C@@H](O)[C@@H](O[C@H]1[C@H](O)[C@H]2O)O[C@@H]9CO)O[C@@H]8CO)O[C@@H]7CO)O[C@@H]6CO)O[C@@H]5CO)O[C@@H]4CO)O[C@@H]3CO [Example 24, γ-cyclodextrin]
- yield of baccatin III [2, 14]: 85.2 mg/L
- yield of cephalomannine [2, 14]: 8.5 mg/L
- yield of cultured cells [2, 14]: 17.5 g/L
- yield of taxol [2, 14]: 45.2 mg/L

Structure (SMILES): CC/C=C\CC1C(=O)CCC1CC(=O)OC (stereo not shown) [Reference Example 1, methyl jasmonate, reference compound]
- yield of cultured cells [3]: 16.8 g/L
- yield of taxane-type diterpenes, baccatin III [3]: 12.1 mg/L
- yield of taxane-type diterpenes, cephalomannine [3]: 4.2 mg/L
- yield of taxane-type diterpenes, taxol [3]: 48.0 mg/L
- yield of baccatin III [2, 15]: 49.7 mg/L
- yield of cephalomannine [2, 15]: 7.3 mg/L
- yield of cultured cells [2, 15]: 15.4 g/L
- yield of taxol [2, 15]: 25.9 mg/L

Source: patent US6465221B1, “Method of producing a taxane-type diterpene” (Mitsui Chemicals, Inc., priority 1994, dated 2002)
